Consider 28 compounds from ChEMBL document CHEMBL1201862, “PubChem BioAssay data set” (2004).

SMILES strings stand for the structures. Activity calls are given as the source filed them.

In experiment [1] the target is T1, Corticotropin-releasing factor receptor 2/Corticotropin-releasing factor-binding protein (Homo sapiens, UniProt P24387+Q13324).
T1 sequence (Q13324 whole entry): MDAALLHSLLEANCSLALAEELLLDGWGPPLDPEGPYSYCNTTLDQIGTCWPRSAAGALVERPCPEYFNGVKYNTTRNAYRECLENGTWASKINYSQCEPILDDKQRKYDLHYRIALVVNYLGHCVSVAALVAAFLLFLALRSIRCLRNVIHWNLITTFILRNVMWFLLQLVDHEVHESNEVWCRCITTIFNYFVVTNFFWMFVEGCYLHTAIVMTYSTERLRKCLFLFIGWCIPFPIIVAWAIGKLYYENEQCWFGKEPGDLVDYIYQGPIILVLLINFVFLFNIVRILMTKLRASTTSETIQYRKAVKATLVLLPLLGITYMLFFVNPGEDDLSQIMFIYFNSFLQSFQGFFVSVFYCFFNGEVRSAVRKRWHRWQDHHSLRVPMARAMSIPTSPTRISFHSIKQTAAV
T1 sequence (P24387 whole entry): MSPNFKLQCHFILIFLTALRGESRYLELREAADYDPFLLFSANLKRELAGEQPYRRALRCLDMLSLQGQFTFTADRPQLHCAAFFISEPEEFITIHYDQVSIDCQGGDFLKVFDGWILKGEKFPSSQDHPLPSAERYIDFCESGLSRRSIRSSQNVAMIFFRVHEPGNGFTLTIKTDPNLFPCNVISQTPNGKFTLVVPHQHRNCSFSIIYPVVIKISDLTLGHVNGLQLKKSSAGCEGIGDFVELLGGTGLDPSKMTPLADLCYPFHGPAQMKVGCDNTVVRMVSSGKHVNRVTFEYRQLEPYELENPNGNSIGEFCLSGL
Put plainly: Dose Response confirmation of uHTS hits for small molecule antagonists of the CRF-binding protein and CRF-R2 receptor complex. The settings on record: read-out: IC50_Mean. The class given is functional.

In experiment [2] the target is T1, Corticotropin-releasing factor receptor 2/Corticotropin-releasing factor-binding protein. The experiment in a line: activators of CRF receptor 2 with binding protein – uHTS hits, confirmation (AID 602473). Format: functional. The settings on record: read-out: EC50_Mean.
The target of experiment [3] is T2, Replicative DNA helicase DnaB (Mycobacterium tuberculosis, UniProt P9WMR3).
T2 sequence (P9WMR3 whole entry): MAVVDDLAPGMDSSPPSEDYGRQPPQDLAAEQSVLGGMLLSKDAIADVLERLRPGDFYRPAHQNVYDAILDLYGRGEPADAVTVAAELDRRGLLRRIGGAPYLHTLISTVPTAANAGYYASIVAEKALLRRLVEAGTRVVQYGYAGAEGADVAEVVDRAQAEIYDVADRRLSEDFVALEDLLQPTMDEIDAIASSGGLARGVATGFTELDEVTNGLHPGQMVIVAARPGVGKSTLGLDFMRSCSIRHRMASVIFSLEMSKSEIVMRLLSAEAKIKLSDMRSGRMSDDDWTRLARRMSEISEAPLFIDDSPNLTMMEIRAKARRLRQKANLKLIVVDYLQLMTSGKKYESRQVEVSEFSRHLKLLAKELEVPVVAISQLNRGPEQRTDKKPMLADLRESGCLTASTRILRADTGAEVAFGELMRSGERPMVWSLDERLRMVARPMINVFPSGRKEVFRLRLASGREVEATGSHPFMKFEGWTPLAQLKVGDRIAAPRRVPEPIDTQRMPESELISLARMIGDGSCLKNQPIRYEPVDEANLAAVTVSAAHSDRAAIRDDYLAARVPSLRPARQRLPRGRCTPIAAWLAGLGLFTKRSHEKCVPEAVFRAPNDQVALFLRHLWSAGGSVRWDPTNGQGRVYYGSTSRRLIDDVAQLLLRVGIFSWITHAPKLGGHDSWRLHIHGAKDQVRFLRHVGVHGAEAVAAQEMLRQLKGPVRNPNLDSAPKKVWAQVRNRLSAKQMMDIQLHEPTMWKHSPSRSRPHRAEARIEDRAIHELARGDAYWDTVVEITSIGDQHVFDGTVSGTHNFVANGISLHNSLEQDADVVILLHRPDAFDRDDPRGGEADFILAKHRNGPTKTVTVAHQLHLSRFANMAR
Put plainly: DnaB intein splicing inhibitors, dose response, biochemical, cell-free fluorescence (AID 449749). The class given is functional.

The next experiment addresses T3, Protein RecA (Mycobacterium tuberculosis, UniProt P9WHJ3).
T3 sequence (P9WHJ3 whole entry): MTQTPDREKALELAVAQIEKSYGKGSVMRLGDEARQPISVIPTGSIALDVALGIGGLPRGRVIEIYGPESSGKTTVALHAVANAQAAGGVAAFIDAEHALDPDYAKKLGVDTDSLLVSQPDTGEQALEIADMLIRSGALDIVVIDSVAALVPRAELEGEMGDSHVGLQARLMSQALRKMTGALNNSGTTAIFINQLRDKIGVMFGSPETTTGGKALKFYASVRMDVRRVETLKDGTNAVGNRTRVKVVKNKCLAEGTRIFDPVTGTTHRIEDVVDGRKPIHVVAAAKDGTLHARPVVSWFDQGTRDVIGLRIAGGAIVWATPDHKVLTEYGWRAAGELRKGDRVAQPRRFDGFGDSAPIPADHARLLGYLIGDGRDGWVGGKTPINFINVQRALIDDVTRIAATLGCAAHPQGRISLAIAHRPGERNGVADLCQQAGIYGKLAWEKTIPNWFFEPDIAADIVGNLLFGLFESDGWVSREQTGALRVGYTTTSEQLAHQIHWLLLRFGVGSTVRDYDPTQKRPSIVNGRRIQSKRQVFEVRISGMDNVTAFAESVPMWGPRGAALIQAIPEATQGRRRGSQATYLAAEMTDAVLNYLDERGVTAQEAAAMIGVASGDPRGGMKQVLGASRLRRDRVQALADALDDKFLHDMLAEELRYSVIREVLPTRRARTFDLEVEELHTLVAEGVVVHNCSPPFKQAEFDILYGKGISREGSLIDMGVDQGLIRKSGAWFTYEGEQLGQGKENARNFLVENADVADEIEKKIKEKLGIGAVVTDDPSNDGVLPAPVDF
Put plainly: Fluorescence Cell-Free Homogeneous Dose Retest to Identify Inhibitors of RecA-Intein Splicing Activity. [Related pubchem assays (depositor defined):AID2097, AID2223, AID489010, AID492950]. The class given is functional.

The nature of experiment [4]: Trypanosoma cruzi growth suppression in host cells – NIH3T3 host cells, beta-gal luminescence, confirmation (AID 2044).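 Also: intracellular parasites grown in NIH/3T3 mouse fibroblasts as host cells; luminescent beta-galactosidase reporter signal from transgenic T. cruzi replicating inside host cells; inhibitors lower the luminescence signal.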 The class given is functional, cell-based.
Experiment [5] can be described thus: NIH3T3 cell viability loss – ATP luminescence, mouse fibroblasts, counter-screen, dose response (AID 2010).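 Also: cells exposed to compound for about 90 hours before reading.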 Format: functional, cell-based. (A counterscreen serves to expose hits that act by an unwanted route or on another target.)
Experiment [6] has as its target T4, Fatty acid synthase (Homo sapiens, UniProt P49327). The experiment in a line: inhibition of human FAS-TE enzyme activity – biochemical, endpoint fluorescence intensity, uHTS hits, dose response (AID 624327).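 Also: fluorescence from hydrolysis of an O-methyl fluorescein acyl ester substrate by the enzyme.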 The class given is functional.
Experiment [7] addresses T4, Fatty acid synthase. Put plainly: inhibition of human FAS-TE enzyme activity – biochemical, kinetic fluorescence intensity, dose response (AID 624326).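 Also: rate of fluorescence rise from hydrolysis of a fluorogenic O-methyl fluorescein ester substrate.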 Format: functional.
A further experiment concerns the target Cytochrome P450 3A4 (Homo sapiens, UniProt P08684).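 Also: CYP3A4 tested as one member of a cytochrome P450 panel screen.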
The nature of experiment [8]: luciferase reporter signal suppression in cells – H4 neuroglioma cells, luminescence, dose response (AID 1990). The class given is functional, cell-based. In general terms: In a reporter assay the amount or activity of a reporter protein is the signal.
The nature of experiment [9]: Luminescence Cell-Based Dose Response HTS to Identify Inhibitors of 5'UTR Stem-Loop Driven Prion Protein mRNA Translation in H4 Neuroglioblastoma Cells. [Related pubchem assays: 1827 (Project Summary), 1813 (Primary HTS)]. The class given is functional.
Experiment [10] is described as follows: alpha-synuclein stem-loop luciferase translation blockers – H4 neuroglioma cells, luminescence, confirmation (AID 1988). The class given is functional, cell-based.

T4 sequence (P49327 whole entry): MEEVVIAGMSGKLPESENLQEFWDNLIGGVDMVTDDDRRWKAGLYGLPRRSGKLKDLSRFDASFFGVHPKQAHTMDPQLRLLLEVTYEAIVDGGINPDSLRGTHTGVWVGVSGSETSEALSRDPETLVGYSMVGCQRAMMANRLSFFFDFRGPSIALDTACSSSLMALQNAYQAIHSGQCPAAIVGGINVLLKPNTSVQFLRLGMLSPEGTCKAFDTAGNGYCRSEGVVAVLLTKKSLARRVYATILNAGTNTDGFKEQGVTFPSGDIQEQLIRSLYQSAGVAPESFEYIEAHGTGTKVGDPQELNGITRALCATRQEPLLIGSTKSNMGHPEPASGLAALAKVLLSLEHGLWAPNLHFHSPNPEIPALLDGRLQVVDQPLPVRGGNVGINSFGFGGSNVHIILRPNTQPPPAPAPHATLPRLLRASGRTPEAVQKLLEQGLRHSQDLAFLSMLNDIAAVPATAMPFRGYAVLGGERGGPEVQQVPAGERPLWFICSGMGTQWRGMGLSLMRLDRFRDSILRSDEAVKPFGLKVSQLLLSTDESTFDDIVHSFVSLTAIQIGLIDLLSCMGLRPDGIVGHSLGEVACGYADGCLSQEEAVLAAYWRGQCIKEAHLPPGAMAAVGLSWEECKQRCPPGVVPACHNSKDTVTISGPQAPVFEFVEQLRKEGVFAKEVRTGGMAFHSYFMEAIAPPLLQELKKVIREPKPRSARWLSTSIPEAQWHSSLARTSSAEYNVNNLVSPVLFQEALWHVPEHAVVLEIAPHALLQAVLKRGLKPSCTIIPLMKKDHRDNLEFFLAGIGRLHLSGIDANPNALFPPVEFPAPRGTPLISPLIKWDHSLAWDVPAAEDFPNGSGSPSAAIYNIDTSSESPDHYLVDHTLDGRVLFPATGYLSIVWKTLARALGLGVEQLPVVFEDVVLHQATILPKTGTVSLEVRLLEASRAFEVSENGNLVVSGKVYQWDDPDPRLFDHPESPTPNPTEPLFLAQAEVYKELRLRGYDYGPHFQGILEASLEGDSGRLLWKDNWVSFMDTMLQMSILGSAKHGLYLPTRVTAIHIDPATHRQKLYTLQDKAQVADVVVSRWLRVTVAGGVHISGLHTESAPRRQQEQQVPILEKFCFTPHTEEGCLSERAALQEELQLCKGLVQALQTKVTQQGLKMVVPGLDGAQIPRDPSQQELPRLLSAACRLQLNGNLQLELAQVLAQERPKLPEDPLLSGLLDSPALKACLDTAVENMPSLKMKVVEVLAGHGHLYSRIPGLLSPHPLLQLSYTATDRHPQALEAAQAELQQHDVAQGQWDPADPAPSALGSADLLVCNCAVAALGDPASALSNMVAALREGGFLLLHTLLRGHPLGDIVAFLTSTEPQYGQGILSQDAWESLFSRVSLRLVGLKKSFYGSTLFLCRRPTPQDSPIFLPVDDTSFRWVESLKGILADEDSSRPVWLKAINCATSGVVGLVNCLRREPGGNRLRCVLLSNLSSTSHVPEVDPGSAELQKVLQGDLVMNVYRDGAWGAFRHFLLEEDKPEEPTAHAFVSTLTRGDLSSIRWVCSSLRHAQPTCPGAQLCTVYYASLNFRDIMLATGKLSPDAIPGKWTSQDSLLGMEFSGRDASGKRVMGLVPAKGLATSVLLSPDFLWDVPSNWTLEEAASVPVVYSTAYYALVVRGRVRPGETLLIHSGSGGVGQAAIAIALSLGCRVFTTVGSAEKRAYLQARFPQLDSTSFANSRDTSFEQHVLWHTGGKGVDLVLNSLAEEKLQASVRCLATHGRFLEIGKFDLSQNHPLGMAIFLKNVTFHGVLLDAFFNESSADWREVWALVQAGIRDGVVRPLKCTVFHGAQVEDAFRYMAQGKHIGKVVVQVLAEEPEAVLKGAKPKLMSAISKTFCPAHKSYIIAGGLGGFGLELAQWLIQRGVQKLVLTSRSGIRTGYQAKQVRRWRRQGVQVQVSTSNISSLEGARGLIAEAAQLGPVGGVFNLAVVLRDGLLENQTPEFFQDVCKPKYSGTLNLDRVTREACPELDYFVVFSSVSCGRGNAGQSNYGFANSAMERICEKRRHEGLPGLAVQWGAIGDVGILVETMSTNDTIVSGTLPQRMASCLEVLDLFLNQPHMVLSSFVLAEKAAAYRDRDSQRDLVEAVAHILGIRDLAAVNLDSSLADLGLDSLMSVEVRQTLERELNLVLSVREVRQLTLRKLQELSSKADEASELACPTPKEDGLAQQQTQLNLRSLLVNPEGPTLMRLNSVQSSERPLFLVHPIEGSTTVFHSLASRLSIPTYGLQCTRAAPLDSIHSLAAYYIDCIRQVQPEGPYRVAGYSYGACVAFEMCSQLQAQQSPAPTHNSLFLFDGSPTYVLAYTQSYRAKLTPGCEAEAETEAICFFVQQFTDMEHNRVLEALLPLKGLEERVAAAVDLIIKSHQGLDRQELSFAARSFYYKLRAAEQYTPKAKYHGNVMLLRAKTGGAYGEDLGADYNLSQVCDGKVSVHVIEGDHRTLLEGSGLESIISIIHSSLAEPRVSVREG
Chain of Cytochrome P450 3A4 (P08684 whole entry): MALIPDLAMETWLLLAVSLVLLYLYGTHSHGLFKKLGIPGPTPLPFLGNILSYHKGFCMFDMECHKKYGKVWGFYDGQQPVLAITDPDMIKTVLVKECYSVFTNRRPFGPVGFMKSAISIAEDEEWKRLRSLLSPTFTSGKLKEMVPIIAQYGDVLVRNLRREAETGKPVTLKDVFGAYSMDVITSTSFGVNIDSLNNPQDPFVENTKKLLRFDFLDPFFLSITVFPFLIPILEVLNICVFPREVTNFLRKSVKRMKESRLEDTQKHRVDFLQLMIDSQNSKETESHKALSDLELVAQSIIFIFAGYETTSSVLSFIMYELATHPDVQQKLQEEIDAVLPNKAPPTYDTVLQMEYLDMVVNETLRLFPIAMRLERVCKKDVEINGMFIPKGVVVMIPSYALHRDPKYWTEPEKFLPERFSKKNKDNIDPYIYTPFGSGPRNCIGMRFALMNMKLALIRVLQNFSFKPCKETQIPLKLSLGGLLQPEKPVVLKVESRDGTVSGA

As for `CC1(C)Cc2ccccc2C(c2cc3ccccc3oc2=O)=N1`, in [1], the IC50 was > 47.1 µM (inactive). Further, the EC50 in [2] was > 53 µM (inactive).
As usually defined, the AC50 is the concentration at which the activity in the assay is half-maximal. `OC1=C2C(=Nc3nn(-c4ccccc4)c(O)c3C2c2ccc3c(c2)OCO3)CCC1` (centres undefined): the AC50 in experiment [3] was 40.9 µM (active). Besides, the EC50 on Protein RecA was 3.29 µM (active).
On the same counts, the results for `CCC(=O)Nc1c(C)nn(C(=O)CC)c1C` are > 380 µM (inactive) and > 380 µM (inactive).
For `CC(C)(C)c1ccc(C(=O)CS(=O)(=O)c2ccccc2)cc1`, the IC50 in experiment [1] was > 47.1 µM (inactive). The EC50 in [2] is > 53 µM (inactive).
Consider `O=C(Cc1cc(O)n[nH]1)N/N=C/c1ccccc1Cl`, for which the AC50 in [3] is 2 µM (active). In addition, the EC50 on Protein RecA was 1.26 µM (active).
Regarding `CCCN(C(=O)c1cc(Cl)nc2ccccc12)C1CCS(=O)(=O)C1` (centres undefined), in [1], the IC50 is > 47.1 µM (inactive). Besides, the EC50 in [2] is > 53 µM (inactive).
Consider `Cc1cc(C)c(C#N)c(SCC(=O)c2ccc(Cl)cc2Cl)n1`, for which the EC50 is 0.169 µM (active) in experiment [4] and > 60 µM (not active) in experiment [5]. Further, the results for the IC50 on Fatty acid synthase [6] and at Fatty acid synthase [7] were 7.15 µM (active) and 4.77 µM (active), respectively. Moreover, the AC50 at Cytochrome P450 3A4 was 17.8 µM (inconclusive).
Regarding `O=C(CSc1nc2ccccc2n1S(=O)(=O)c1cccc([N+](=O)[O-])c1)NCCc1ccccc1`, the IC50 on Fatty acid synthase [6] is 3.67 µM (active); on Fatty acid synthase [7], 2.4 µM (active).
`O=C(COc1ccc(Cl)cc1Cl)Nc1ccccc1F`: the IC50 in experiment [1] is > 47.1 µM (inactive). In addition, the EC50 in [2] is > 53 µM (inactive).
In the same order, the values of `COc1ccccc1C(=O)COC(=O)c1c(-c2ccccc2)noc1C` are > 47.1 µM (inactive) and > 53 µM (inactive).
`COc1ccc(N2C(=O)C(Cl)=C(NCc3ccccc3)C2=O)cc1`: the AC50 in [3] is 68.8 µM (active). At Protein RecA, the EC50 is 12.9 µM (active).
In the case of `O=C(O)CC(NC(=O)C(c1ccccc1)c1ccccc1)c1cccc([N+](=O)[O-])c1` (centres undefined), the IC50 was 9.02 µM (active) on Fatty acid synthase [6] and 7.4 µM (active) at Fatty acid synthase [7].
For the compound `COc1ccc(CNC(=O)C2(c3ccc(Cl)cc3)CC2)cc1`, the IC50 in experiment [1] was > 47.1 µM (inactive). Also, the EC50 in experiment [2] was > 53 µM (inactive).
`COc1ccc(C(=O)N/N=C\c2coc3ccc(Cl)cc3c2=O)cc1`: the AC50 in experiment [3] was > 120 µM (inactive). Besides, the EC50 on Protein RecA was 19.8 µM (active).
`COc1ccccc1NC(=O)COC(=O)c1cc([N+](=O)[O-])ccc1N1CCCC1`: the values for the IC50 at Fatty acid synthase [6] and on Fatty acid synthase [7] were 5 µM (active) and 6.41 µM (active), respectively.
For `COc1cccc(CN2CCC(Oc3ccc(C(=O)NCc4ccccn4)cc3)CC2)c1O`, the IC50 in [1] was > 47.1 µM (inactive). Besides, the EC50 in experiment [2] is > 53 µM (inactive).
In the case of `C[C@H](NC(=O)c1[nH]cnc1C(=O)N[C@@H](CCCCNC(=O)OC(C)(C)C)C(=O)OC(C)(C)C)C(=O)OCc1ccccc1`, the IC50 on Fatty acid synthase [6] is 0.349 µM (active); at Fatty acid synthase [7], 0.176 µM (active).
Regarding `CCN(CC(=O)Nc1ccc(NC(C)=O)cc1)C(=O)c1ccc(=O)n(C)n1`, the IC50 in experiment [1] was > 47.1 µM (inactive). In addition, in experiment [2], the EC50 was > 53 µM (inactive).
Take `COc1ccc(C(=O)Nc2cc([N+](=O)[O-])ccc2N2CCCC2)cc1`: the IC50 was 15.1 µM (active) at Fatty acid synthase [6] and 12.3 µM (active) on Fatty acid synthase [7].
`CCS(=O)(=O)c1nc(S(=O)(=O)c2ccc(C)cc2)c(N2CC(C)CC(C)C2)s1` (centres undefined): the EC50 in [8], in experiment [9] and in experiment [10] was > 120 µM (not active) in each case.
Take `Cc1ccc(C(=O)N/N=C\c2ccccn2)cn1`: the IC50 in [1] was > 47.1 µM (inactive). Also, the EC50 in [2] is > 53 µM (inactive).
Take `Cc1c(C(=O)Nc2c(F)cccc2F)sc2ncn(CC(=O)N3CCCCC3)c(=O)c12`: the IC50 in experiment [1] was > 47.1 µM (inactive). The EC50 in experiment [2] is > 53 µM (inactive).
With `S=C(NCc1ccccc1)NCc1ccc(CNC(=S)NCc2ccccc2)cc1`, the EC50 in experiment [8], in experiment [9] and in experiment [10] was > 120 µM (not active) in each case.
As for `CN(CC(=O)Nc1ccc(F)cc1)C(=O)COC(=O)c1cc([N+](=O)[O-])ccc1N1CCOCC1`, the results for the IC50 on Fatty acid synthase [6] and on Fatty acid synthase [7] were 6.68 µM (active) and 7.99 µM (active), respectively.
Consider `COc1ccc(CN2CCN(Cc3cccn3-c3ncccn3)CC2CCO)c(C)c1C` (centres undefined), for which the figures for the EC50 in experiment [8], in [9] and in experiment [10] were > 120 µM (not active), > 120 µM (not active) and 12.1 µM (active), respectively.
On to `O=C(NCCN1C(=O)S/C(=C\c2ccccc2)C1=O)C1CCN(S(=O)(=O)c2cccs2)CC1`, for which the IC50 on Fatty acid synthase [6] is 16.2 µM (active); on Fatty acid synthase [7] it was 18.1 µM (active).
Take `Cc1cccc(N2CCN(C(=O)CC(NC(=O)c3ccccc3)c3ccccc3)CC2C)c1` (centres undefined): the EC50 in [8], in experiment [9] and in experiment [10] was > 120 µM (not active) each time.
Turning to `CCC(C)[C@H](NC(=O)N1CCCC1)C(=O)O` (some centres undefined), the EC50 in experiment [8], in experiment [9] and in [10] was > 120 µM (not active) in each case.
